For the experiment, the system named is adenosine-uptake system. The experiment in a line: Inhibition of adenosine uptake in rabbit erythrocytes. It counts as cell-based. The note with it: Oryctolagus cuniculus, 0.25 h; rabbit erythrocyte preparation; concentration at which 50% of the adenosine originally employed is still present 15 min after addition; 30° C. How it is done: 2. Inhibition of Adenosine Uptake in Rabbit Erythrocytes by the Compounds According to the Invention.
The capability of substances to influence the adenosine-uptake system is investigated by determining the inhibitory effect of the substances on functional adenosine uptake. For the functional adenosine-uptake test, an erythrocyte preparation from rabbit blood is used. The blood is drawn intravenously using citrate (3 ml Monovette 9NC from Sarstedt) as anticoagulant. The blood is centrifuged at 3000 g for 5 min and the erythrocytes are suspended in 10 mM MOPS/0.9% NaCl solution pH 7.4. The suspension is diluted to one hundredth of the original blood volume. In each case 990 μl of the suspension are admixed with 10 μl of a suitable concentration of the substance to be investigated, and the mixture is incubated at 30° C. for 5 min. 5 μl of a 4 mM adenosine solution are then added, and the mixture is incubated at 30° C. for another 15 min. The samples are then centrifuged at 3000 g for 5 min and in each case […] of the supernatant are admixed with 28 μl of 70% strength HClO4, allowed to stand in an ice bath for 30 min and centrifuged at 16,000 g for 3 min, and 350 μl of the sample are neutralized using 30 μl of 5N NaOH. 50 μl of the sample are applied to a column (Waters Symmetry C18 […] 3.9×150 mm). A Spherisorb ODS II 5 μm 4.6×10 mm column is used as precolumn. The mobile phase used is a gradient of 50 mM KH2PO^4/5 mM tributylamine pH 7 (mobile phase A) and a mixture of mobile phase A/methanol 1/1 (mobile phase B). The gradient is from 10-40% B, at a flow rate of 0.5 ml/min. The adenosine which is present is quantified by its absorption at 260 nm, as are the hyoxanthine and inosine formed.

pIC50: −log10 of the molar value.

By pIC50 is commonly meant the negative decadic logarithm of the IC50, by convention in mol/L. A low value points to a high IC50. In the case of `CC(C)N1CCN(c2nc3ccccc3n2Cc2ccc([C@@H]3CCCC[C@H]3C(=O)N[C@H](C(N)=O)c3ccccc3)cc2)CC1` [Example 8], the pIC50 is 7.70.

For `NC(=O)[C@@H](NC(=O)[C@@H]1CCCC[C@H]1c1ccc(Cn2c(N3CCNCC3)nc3ccccc32)cc1)c1ccccc1` [Example 10], the negative logarithm of the IC50 (pIC50) was 7.60.

`NC(=O)[C@@H](NC(=O)[C@@H]1CCCC[C@H]1c1ccc(Cn2c(CN3CCOCC3)nc3cccnc32)cc1)c1ccccc1` [Example 3, (S)-N-{{(1R, 2R)-{4-{2-[2-(Morpholin-4-yl-methyl)-1H-pyrido[2,3-d]-imidazol-1-yl]methyl}-phenyl}-cyclohex-1-yl}carbonyl}-phenylglycinamide]: the negative-log IC50 (pIC50) was 7.82.

Regarding `NC(=O)[C@@H](NC(=O)[C@@H]1CCCC[C@H]1c1ccc(Cn2c(COCCO)nc3cccnc32)cc1)c1ccccc1` [Example 16], the negative logarithm of the IC50 (pIC50) was 8.00.
